Results published in ChEMBL document CHEMBL4118070, “Synthesis, antimicrobial, antiquorum-sensing and antitumor activities of new benzimidazole analogs” (Eur J Med Chem, 2017).
≈ marks a conversion by molar mass, not a printed value. Calls of active or inactive are those of the source. No cut-off for these calls is given here.

Key:
Escherichia coli = experiment: Antibacterial activity against Escherichia coli ATCC 12435 after 24 hrs by two-fold serial dilution method; type: functional; conditions: ATCC 12435, 24 h
Bacillus cereus = experiment: Antibacterial activity against Bacillus cereus UW 85 after 24 hrs by two-fold serial dilution method; type: functional; conditions: UW 85, 24 h
Staphylococcus aureus = experiment: Antibacterial activity against Staphylococcus aureus ATCC 29213 after 24 hrs by two-fold serial dilution method; type: functional; conditions: ATCC 29213, 24 h
Candida albicans = experiment: Antifungal activity against Candida albicans after 48 hrs by two-fold serial dilution method; type: functional
Aspergillus fumigatus = experiment: Antifungal activity against Aspergillus fumigatus 293 after 48 hrs by two-fold serial dilution method; type: functional; conditions: Af293, 48 h
[1] = test system: Chromobacterium violaceum; experiment: Inhibition of quorum sensing system in Chromobacterium violaceum ATCC 12472 assessed as diameter of violacein pigment inhibition at 5 mg/ml after 48 hrs
HepG2 = experiment: Cytotoxicity against human HepG2 cells assessed as decrease in cell viability after 48 hrs by MTT assay; type: functional, cell-based; conditions: HepG2, 48 h
HCT-116 = experiment: Cytotoxicity against human HCT116 cells assessed as decrease in cell viability after 48 hrs by MTT assay; type: functional, cell-based; conditions: HCT-116, 48 h
MCF7 = experiment: Cytotoxicity against human MCF7 cells assessed as decrease in cell viability after 48 hrs by MTT assay; type: functional, cell-based; conditions: MCF7, 48 h
[2] = Displacement of methyl green from DNA (unknown origin) incubated in dark for 24 hrs by colorimetric method
Ehrlich [3] = experiment: Antitumor activity against mouse EAC allografted in Swiss mouse assessed as mean mouse survival time at 0.5 mg administered 9 days (reference value: 14.5 days); type: functional
Ehrlich [4] = experiment: Antitumor activity against mouse EAC allografted in Swiss mouse assessed as increase in mouse life span at 0.5 mg administered 9 days relative to control; type: functional
Ehrlich [5] = experiment: Antitumor activity against mouse EAC allografted in Swiss mouse assessed as tumor volume at 0.5 mg administered 9 days (reference value: 9.85 ml); type: functional
Ehrlich [6] = experiment: Antitumor activity against mouse EAC allografted in Swiss mouse assessed as hemoglobin count in blood at 0.5 mg administered 9 days (reference value: 8.73 g/dl); type: functional
Ehrlich [7] = experiment: Antitumor activity against mouse EAC allografted in Swiss mouse assessed as RBC count in blood at 0.5 mg administered 9 days (reference value: 3.69 10^6/mm3); type: functional
Ehrlich [8] = experiment: Antitumor activity against mouse EAC allografted in Swiss mouse assessed as WBC count in blood at 0.5 mg administered 9 days (reference value: 23.96 10^3/mm3); type: functional
WI-38 = experiment: Cytotoxicity against human W138 cells assessed as decrease in cell viability after 48 hrs by MTT assay; type: cell-based; conditions: WI-38, 48 h
Ehrlich [9] = experiment: Antitumor activity against mouse EAC allografted in Swiss mouse assessed as decrease in viable tumor cell count at 0.5 mg administered 9 days by trypan blue staining method; type: functional

## O=C(CSCc1nc2cc([N+](=O)[O-])ccc2[nH]1)N/N=C/c1ccc(Cl)cc1
Escherichia coli
  MIC: > 2500 µg/mL
Bacillus cereus
  MIC: > 2500 µg/mL
Staphylococcus aureus
  MIC: > 2500 µg/mL
Candida albicans
  MIC: 774 µM (≈ 312 µg/mL)
Aspergillus fumigatus
  MIC: 1550 µM
[1]
  Activity: < 2 mm
HepG2
  IC50: 56.8 µM
HCT-116
  IC50: 15.3 µM
MCF7
  IC50: 13.7 µM

## O=C(CSCc1nc2cc([N+](=O)[O-])ccc2[nH]1)NNC(=S)Nc1ccccc1
Escherichia coli
  MIC: > 2500 µg/mL
Bacillus cereus
  MIC: > 2500 µg/mL
Staphylococcus aureus
  MIC: > 2500 µg/mL
Candida albicans
  MIC: 375 µM (≈ 156 µg/mL)
Aspergillus fumigatus
  MIC: 750 µM
[1]
  Activity: < 2 mm
HepG2
  IC50: > 100 µM
HCT-116
  IC50: 29.2 µM
MCF7
  IC50: > 100 µM
[2]
  IC50: 52.3 µM

## N#CCSCc1nc2cc([N+](=O)[O-])ccc2[nH]1
Escherichia coli
  MIC: > 2500 µg/mL
Bacillus cereus
  MIC: 5.04 mM
Staphylococcus aureus
  MIC: > 2500 µg/mL
Candida albicans
  MIC: 5040 µM (≈ 1250 µg/mL)
Aspergillus fumigatus
  MIC: 5040 µM
[1]
  Activity: < 2 mm
HepG2
  IC50: 30.6 µM
HCT-116
  IC50: 28.2 µM
MCF7
  IC50: 27.4 µM

## COc1cccc2c1C(=O)c1c(O)c3c(c(O)c1C2=O)C[C@@](O)(C(=O)CO)C[C@@H]3O[C@H]1C[C@H](N)[C@H](O)[C@H](C)O1 [DOXORUBICIN]
[2]
  IC50: 32.4 µM

## O=c1[nH]cc(F)c(=O)[nH]1 [FLUOROURACIL]
HepG2
  IC50: 5.3 µM
HCT-116
  IC50: 4 µM
MCF7
  IC50: 4.3 µM
Ehrlich [3]
  MST: 49 days
Ehrlich [4]
  ILS: 237.93%
Ehrlich [5]
  Activity: 1.6 mL
Ehrlich [6]
  Activity: 12.96 g/dL
Ehrlich [7]
  Activity: 5.21 ×10⁶ /mm3
Ehrlich [8]
  Activity: 8.86 ×10³ /mm3
WI-38
  IC50: 5.73 µM

## OC(Cn1cncn1)(Cn1cncn1)c1ccc(F)cc1F [FLUCONAZOLE]
Candida albicans
  MIC: 8160 µM (≈ 2500 µg/mL)
Aspergillus fumigatus
  MIC: > 2500 µg/mL

## O=[N+]([O-])c1ccc2[nH]c(CSCc3nc4cc([N+](=O)[O-])ccc4[nH]3)nc2c1
Escherichia coli
  MIC: 1630 µM
Bacillus cereus
  MIC: 0.813 mM
Staphylococcus aureus
  MIC: 406 µM
Candida albicans
  MIC: 406 µM (≈ 156 µg/mL)
Aspergillus fumigatus
  MIC: 406 µM
[1]
  Activity: 11 mm
HepG2
  IC50: 2.25 µM
HCT-116
  IC50: 2.41 µM
MCF7
  IC50: 1.74 µM
Ehrlich [3]
  MST: 47 days
Ehrlich [4]
  ILS: 224.14%
Ehrlich [5]
  Activity: 2.22 mL
Ehrlich [9]
  Activity: Active
Ehrlich [6]
  Activity: 13.18 g/dL
Ehrlich [7]
  Activity: 5.45 ×10⁶ /mm3
Ehrlich [8]
  Activity: 7.23 ×10³ /mm3
WI-38
  IC50: 25.4 µM
[2]
  IC50: 37.1 µM

## NNC(=O)CSCc1nc2cc([N+](=O)[O-])ccc2[nH]1
Escherichia coli
  MIC: > 2500 µg/mL
Bacillus cereus
  MIC: > 2500 µg/mL
Staphylococcus aureus
  MIC: > 2500 µg/mL
Candida albicans
  MIC: 1110 µM (≈ 312 µg/mL)
Aspergillus fumigatus
  MIC: 4440 µM
[1]
  Activity: < 2 mm
HepG2
  IC50: 18.6 µM
HCT-116
  IC50: 5.33 µM
MCF7
  IC50: 13.2 µM
[2]
  IC50: 87.2 µM

## O=C(CSCc1nc2cc([N+](=O)[O-])ccc2[nH]1)c1ccc(Br)cc1
Escherichia coli
  MIC: > 2500 µg/mL
Bacillus cereus
  MIC: 0.769 mM
Staphylococcus aureus
  MIC: 192 µM
Candida albicans
  MIC: 385 µM (≈ 156 µg/mL)
Aspergillus fumigatus
  MIC: 385 µM
[1]
  Activity: < 2 mm
HepG2
  IC50: 2.01 µM
HCT-116
  IC50: 1.78 µM
MCF7
  IC50: 1.55 µM
Ehrlich [3]
  MST: 45.3 days
Ehrlich [4]
  ILS: 212.42%
Ehrlich [5]
  Activity: 2.41 mL
Ehrlich [9]
  Activity: Active
Ehrlich [6]
  Activity: 12.92 g/dL
Ehrlich [7]
  Activity: 5.14 ×10⁶ /mm3
Ehrlich [8]
  Activity: 7.41 ×10³ /mm3
WI-38
  IC50: 31.5 µM
[2]
  IC50: 34.6 µM

## NC(=O)CSCc1nc2cc([N+](=O)[O-])ccc2[nH]1
Escherichia coli
  MIC: 587 µM
Bacillus cereus
  MIC: 0.293 mM
Staphylococcus aureus
  MIC: 147 µM
Candida albicans
  MIC: 147 µM (≈ 39.1 µg/mL)
Aspergillus fumigatus
  MIC: 293 µM
[1]
  Activity: 9 mm
HepG2
  IC50: 26.9 µM
HCT-116
  IC50: 17.2 µM
MCF7
  IC50: 19.7 µM
[2]
  IC50: 41.3 µM

## CC1=NN(C(=O)CSCc2nc3cc([N+](=O)[O-])ccc3[nH]2)C(=O)C1
Escherichia coli
  MIC: > 2500 µg/mL
Bacillus cereus
  MIC: > 2500 µg/mL
Staphylococcus aureus
  MIC: > 2500 µg/mL
Candida albicans
  MIC: 7200 µM (≈ 2500 µg/mL)
Aspergillus fumigatus
  MIC: > 2500 µg/mL
[1]
  Activity: < 2 mm
HepG2
  IC50: 7.33 µM
HCT-116
  IC50: 5.41 µM
MCF7
  IC50: 8.07 µM

## CCOC(=O)CSCc1nc2cc([N+](=O)[O-])ccc2[nH]1
Escherichia coli
  MIC: 4230 µM
Bacillus cereus
  MIC: 2.12 mM
Staphylococcus aureus
  MIC: 2120 µM
Candida albicans
  MIC: 2120 µM (≈ 625 µg/mL)
Aspergillus fumigatus
  MIC: 2120 µM
[1]
  Activity: < 2 mm
HepG2
  IC50: > 100 µM
HCT-116
  IC50: > 100 µM
MCF7
  IC50: > 100 µM

## Oc1cc(O)c2c(c1)O[C@H](c1ccc(O)c(O)c1)[C@@H](O)C2
[1]
  Activity: 2 mm

## O=C(CSCc1nc2cc([N+](=O)[O-])ccc2[nH]1)c1ccccc1
Escherichia coli
  MIC: > 2500 µg/mL
Bacillus cereus
  MIC: > 2500 µg/mL
Staphylococcus aureus
  MIC: 3820 µM
Candida albicans
  MIC: 1910 µM (≈ 625 µg/mL)
Aspergillus fumigatus
  MIC: 7640 µM
[1]
  Activity: < 2 mm
HepG2
  IC50: 16.1 µM
HCT-116
  IC50: 12.3 µM
MCF7
  IC50: 18.6 µM

## O=[N+]([O-])c1ccc2[nH]c(CSCc3nc4ccccc4[nH]3)nc2c1
Escherichia coli
  MIC: > 2500 µg/mL
Bacillus cereus
  MIC: > 2500 µg/mL
Staphylococcus aureus
  MIC: 3680 µM
Candida albicans
  MIC: 3680 µM (≈ 1250 µg/mL)
Aspergillus fumigatus
  MIC: > 2500 µg/mL
[1]
  Activity: 4 mm
HepG2
  IC50: 11.2 µM
HCT-116
  IC50: 7.91 µM
MCF7
  IC50: 13.1 µM

## N#Cc1sc(Nc2ccccc2)nc1NC(=O)CSCc1nc2cc([N+](=O)[O-])ccc2[nH]1
Escherichia coli
  MIC: > 2500 µg/mL
Bacillus cereus
  MIC: 5.37 mM
Staphylococcus aureus
  MIC: 5370 µM
Candida albicans
  MIC: 2690 µM (≈ 1250 µg/mL)
Aspergillus fumigatus
  MIC: 5370 µM
[1]
  Activity: < 2 mm
HepG2
  IC50: 9.48 µM
HCT-116
  IC50: 8.43 µM
MCF7
  IC50: 11.3 µM

## CCOC(=O)c1c(NC(=O)CSCc2nc3cc([N+](=O)[O-])ccc3[nH]2)sc2c1CCCCC2
Escherichia coli
  MIC: 2560 µM
Bacillus cereus
  MIC: 2.56 mM
Staphylococcus aureus
  MIC: 2560 µM
Candida albicans
  MIC: 1280 µM (≈ 625 µg/mL)
Aspergillus fumigatus
  MIC: 2560 µM
[1]
  Activity: < 2 mm
HepG2
  IC50: 7.39 µM
HCT-116
  IC50: 7.51 µM
MCF7
  IC50: 10.3 µM

## NC(=S)NNC(=O)CSCc1nc2cc([N+](=O)[O-])ccc2[nH]1
Escherichia coli
  MIC: > 2500 µg/mL
Bacillus cereus
  MIC: 3.67 mM
Staphylococcus aureus
  MIC: 918 µM
Candida albicans
  MIC: 459 µM (≈ 156 µg/mL)
Aspergillus fumigatus
  MIC: 1840 µM
[1]
  Activity: 11 mm
HepG2
  IC50: 7.05 µM
HCT-116
  IC50: 4.71 µM
MCF7
  IC50: 7.53 µM
[2]
  IC50: 66.2 µM

## O=C(CSCc1nc2cc([N+](=O)[O-])ccc2[nH]1)c1ccc(Cl)cc1
Escherichia coli
  MIC: > 2500 µg/mL
Bacillus cereus
  MIC: 6.91 mM
Staphylococcus aureus
  MIC: 864 µM
Candida albicans
  MIC: 864 µM (≈ 312 µg/mL)
Aspergillus fumigatus
  MIC: 3450 µM
[1]
  Activity: < 2 mm
HepG2
  IC50: 2.65 µM
HCT-116
  IC50: 2.23 µM
MCF7
  IC50: 2.8 µM
Ehrlich [3]
  MST: 39.2 days
Ehrlich [4]
  ILS: 170.34%
Ehrlich [5]
  Activity: 2.83 mL
Ehrlich [9]
  Activity: Active
Ehrlich [6]
  Activity: 12.32 g/dL
Ehrlich [7]
  Activity: 4.87 ×10⁶ /mm3
Ehrlich [8]
  Activity: 9.1 ×10³ /mm3
WI-38
  IC50: 33.8 µM
[2]
  IC50: 62.8 µM

## CC1(C)S[C@@H]2[C@H](NC(=O)[C@H](N)c3ccccc3)C(=O)N2[C@H]1C(=O)O [AMPICILLIN]
Escherichia coli
  MIC: 55.9 µM
Bacillus cereus
  MIC: 3.58 mM
Staphylococcus aureus
  MIC: 894 µM
